One block for each substance: values may come before it.
Tests used:
[1] = Electrophoresis of polyanionic property on cellulose acetate membrane; assay type: physicochemical; conditions: 0.2 N hydrochloric acid, about 65 mA for 65 minutes; for DISTANCE (CM): electrophoretic migration from cathode end, toluidine blue stain
Method: The unique polyanionic property of polysulfated glycosaminoglycan (PSGAG) is determined by electrophoresis. A 70 mm cellulose acetate (CA) membrane, saturated with 0.2 N hydrochloric acid is suspended with contact between the cathode and anode of an electrophoresis chamber. A test solution of PSGA G containing about 1 microgram of PSGAG is applied to the cathode end of the strip. A current of about 65 mA is applied for 65 minutes. The CA membrane is removed from the tank, then stained with a 0.1% toluidine blue solution for 5 minutes. The CA membrane is rinsed with a sufficient quantity of water to remove the excess toluidine blue. On the strip, PSGAG appears as only one violet-blue spot at a distance of approximately 3 cm from its starting point.
The cathode is the negative terminal of the electrophoresis chamber. Anionic compounds, such as PSGAG, under an applied current will migrate towards the chamber's anode (i.e., its positive terminal). The polyanionic property of PSGAG was compared to hyaluronic acid, chondroitin sulfate A, chondroitin sulfate B (dermatan sulfate), chondroitin sulfate C, heparin sulfate and keratan sulfate using electrophoresis.

[2] = rabbits, IM injection; incl. articular cartilage, synovial fluid, kidneys, brain, liver, skin, heart; cited from earlier work
serine proteinases = conditions: in vitro; cited from earlier work
[3] = test system: Prostaglandin E2 (PGE2) synthesis; conditions: cited from earlier work
elastase = conditions: cited from earlier work
stromelysin = stromelysin (Homo sapiens, UniProt P08254); conditions: cited from earlier work
metalloproteases = conditions: cited from earlier work
cathepsin B1 = cathepsin B1 (Homo sapiens, UniProt P07858); conditions: cited from earlier work
hyaluronidases = conditions: cited from earlier work
human chondrocytes = conditions: cultured human chondrocytes; cited from earlier work
rabbit chondrocytes = conditions: cultured rabbit chondrocytes; cited from earlier work
synovial membrane cells = synovial membrane cells in vitro; cited from earlier work

Sequence of stromelysin (P08254 100-477): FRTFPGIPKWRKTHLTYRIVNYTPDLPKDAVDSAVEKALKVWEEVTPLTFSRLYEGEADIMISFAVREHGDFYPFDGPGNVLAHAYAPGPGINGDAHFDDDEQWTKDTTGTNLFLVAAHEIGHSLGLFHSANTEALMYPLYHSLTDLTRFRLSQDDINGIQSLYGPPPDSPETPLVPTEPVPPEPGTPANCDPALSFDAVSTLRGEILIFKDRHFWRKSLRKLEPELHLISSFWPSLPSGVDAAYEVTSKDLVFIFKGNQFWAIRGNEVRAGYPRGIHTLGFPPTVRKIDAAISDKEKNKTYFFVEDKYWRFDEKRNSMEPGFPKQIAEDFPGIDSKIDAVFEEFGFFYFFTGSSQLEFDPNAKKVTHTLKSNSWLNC

Substance: heparin sulfate
- DISTANCE (CM) [1]: 2.3 ± 0.0 (n = 2) CM

Substance: hyaluronic acid
- DISTANCE (CM) [1]: 1.1 ± 0.1 (n = 2) CM

Substance: chondroitin sulfate C
- DISTANCE (CM) [1]: 2.0 ± 0.3 (n = 2) CM

Now from value to substance, other results behind:

- DISTANCE (CM) [1]: 2.5 ± 0.1 (n = 2) CM
Substance: keratan sulfate [Keratin Sulfate]

- DISTANCE (CM) [1]: 1.7 ± 0.0 (n = 2) CM
Substance: chondroitin sulfate B (dermatan sulfate)

- DISTANCE (CM) [1]: 2.1 ± 0.0 (n = 2) CM
Substance: chondroitin sulfate A

- distance of the violet-blue spot from its starting point [1]: approximately 3 cm
- DISTANCE (CM) [1]: 3.1 ± 0.3 (n = 12) CM
Substance: polysulfated glycosaminoglycan [PSGAG]
- tissue distribution [2]: distributed to all tissues studied
- inhibition of serine proteinases (serine proteinases): significantly inhibit
- inhibition of Prostaglandin E2 (PGE2) synthesis [3]: inhibitor
- inhibition of elastase (elastase): inhibit
- inhibition of stromelysin (stromelysin): inhibit
- inhibition of metalloproteases (metalloproteases): inhibit
- inhibition of cathepsin B1 (cathepsin B1): inhibit
- inhibition of hyaluronidases (hyaluronidases): inhibit
- synthesis of proteoglycan and hyaluronic acid (human chondrocytes): increased synthesis
- synthesis of proteoglycan and hyaluronic acid (rabbit chondrocytes): increased synthesis
- effect on hyaluronic acid synthesis (synovial membrane cells): specific potentiating effect
